Drawing on patent publication US10844044B2 (Vanderbilt University, priority 2018, dated 2020), this text covers GI50 and Ki for 23 compounds.

Like-named read-outs stand apart in the source and are kept apart here. Some results are limits rather than exact numbers.

Assay [1] concerns MV4:11 human cancer cell lines. Nature of the assay: Anti-proliferative activity, CellTiter-Glo viability assay, 7 day protocol. The format is cell-based. The following applies: Homo sapiens, MV4-11, 168 h, MV4:11 cells, 7 day incubation, read-out: GI50 on cellular proliferation of MV4:11 human cancer cell lines. In short, it runs like this:
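Luminescent CellTiter-Glo readout after 7-day compound exposure of MV4:11 cells plated at 3600 cells/ml (final DMSO 0.1%). GI50 derived from three biological × three technical replicates, reported as mean ± S.E.M.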

For the next assay, the target named is WDR5 (Homo sapiens (Human), UniProt P61964). The assay is described as follows: TR-FRET binding assay (displacement of 10mer-Thr-FAM probe from WDR5).
The mark [2] stands for this setting: read-out: Ki for Inhibition of WDR5 by TR-FRET assay, TR-FRET, 10mer-Thr-FAM probe, WDR5-His tag 2 nM, pH 7.0.

With `Cc1cc([C@@H](NC(=O)c2cc(Cn3ccn(C)c3=N)cc(-c3ccc(F)cc3C(F)(F)F)c2)C2CC2)ccc1F` [Example 188, (S)—N-(Cyclopropyl(4-fluoro-3-methylphenyl)methyl)-4′-fluoro-5-((2-imino-3-methyl-2,3-dihydro-1H-imidazol-1-yl)methyl)-2′-(trifluoromethyl)-[1,1′-biphenyl]3-carboxamide], in assay [1], the GI50 was < 100 nM. In addition, the Ki on WDR5 is < 0.1 nM.
Consider `Cn1ccn(Cc2cc(C(=O)N[C@H](c3ccc(F)c(F)c3)C3CC3)cc(-c3cccnc3C(F)(F)F)c2)c1=N` [Example 189, (S)—N-(Cyclopropyl(3,4-difluorophenyl)methyl)-3-((2-imino-3-methyl-2,3-dihydro-1H-imidazol-1-yl)methyl)-5-(2-(trifluoromethyl)pyridin-3-yl)benzamide], for which the GI50 in assay [1] came to 120 nM. Besides, the Ki at WDR5 (setting [2]) is < 0.1 nM.
As for `CCn1cc(-c2cc(Cn3ccn(C4CC4)c3=N)cc(C(=O)N[C@H](c3ccc(F)c(F)c3)C3CC3)c2)c(C(F)(F)F)n1` [Example 190, (S)—N-(Cyclopropyl(3,4-difluorophenyl)methyl)-3-((3-cyclopropyl-2-imino-2,3-dihydro-1H-imidazol-1-yl)methyl)-5-(1-ethyl-3-(trifluoromethyl)-1H-pyrazol-4-yl)benzamide], the GI50 in assay [1] amounted to 190 nM. Also, the Ki on WDR5 (setting [2]) came out at 0.11 nM.
On to `CCn1cc(-c2cc(Cn3ccn(C)c3=N)cc(C(=O)N[C@H](c3ccc(F)c(F)c3)C3CC3)c2)c(C(F)(F)F)n1` [Example 191], for which, in assay [1], the GI50 came to 80 nM. Further, at WDR5 (setting [2]), the Ki was < 0.1 nM.
The matching figures for `C=C(c1cc(Cn2ccn(C)c2=N)cc(C(=O)N[C@H](c2ccc(F)c(C)c2)C2CC2)c1)C(F)(F)F` [Example 192, (S)—N-(cyclopropyl(4-fluoro-3-methylphenyl)methyl)-3-((2-imino-3-methyl-2,3-dihydro-1H-imidazol-1-yl)methyl)-5-(3,3,3-trifluoroprop-1-en-2-yl)benzamide]: 500 nM and < 0.1 nM.
As to `Cc1cc([C@@H](NC(=O)c2cc(Cn3ccn(C)c3=N)cc(-c3cn(C(C)C)nc3C(F)(F)F)c2)C2CC2)ccc1F` [Example 193, (S)—N-(Cyclopropyl(4-fluoro-3-methylphenyl)methyl)-3-((2-imino-3-methyl-2,3-dihydro-1H-imidazol-1-yl)methyl)-5-(1-isopropyl-3-(trifluoromethyl)-1H-pyrazol-4-yl)benzamide], the GI50 in assay [1] is < 100 nM. The Ki on WDR5 (setting [2]) was < 0.1 nM.
For `Cc1cc([C@@H](NC(=O)c2cc(Cn3ccn(C4CC4)c3=N)cc(-c3cn(C(C)C)nc3C(F)(F)F)c2)C2CC2)ccc1F` [Example 194, (S)—N-(Cyclopropyl(4-fluoro-3-methylphenyl)methyl)-3-((3-cyclopropyl-2-imino-2,3-dihydro-1H-imidazol-1-yl)methyl)-5-(1-isopropyl-3-(trifluoromethyl)-1H-pyrazol-4-yl)benzamide], the GI50 in assay [1] is < 100 nM. On WDR5 (setting [2]), the Ki is < 0.1 nM.
On to `Cc1cc([C@@H](NC(=O)c2cc(Cn3ccn(C)c3=N)cc(C(C)C(F)(F)F)c2)C2CC2)ccc1F` (stereo partly drawn) [Example 195, N—((S)-Cyclopropyl(4-fluoro-3-methylphenyl)methyl)-3-((2-imino-3-methyl-2,3-dihydro-1H-imidazol-1-yl)methyl)-5-(1,1,1-trifluoropropan-2-yl)benzamide], for which the GI50 in assay [1] worked out at 940 nM. In addition, the Ki at WDR5 (setting [2]) is < 0.1 nM.
On to `Cc1cc([C@@H](NC(=O)c2cc(Cn3ccn(C)c3=N)cc(-c3cc(C(F)(F)F)nn3C)c2)C2CC2)ccc1F` [Example 196, (S)—N-(Cyclopropyl(4-fluoro-3-methylphenyl)methyl)-3-((2-imino-3-methyl-2,3-dihydro-1H-imidazol-1-yl)methyl)-5-(1-methyl-3-(trifluoromethyl)-1H-pyrazol-5-yl)benzamide], for which the GI50 in assay [1] was < 100 nM. On WDR5 (setting [2]), the Ki is < 0.1 nM.
As for `CCn1cc(-c2cc(Cn3ccn(C)c3=N)cc(C(=O)NCc3ccc(F)c(C)c3)c2)c(C(F)(F)F)n1` [Example 198, 3-(1-Ethyl-3-(trifluoromethyl)-1H-pyrazol-4-yl)-N-(4-fluoro-3-methylbenzyl)-5-((2-imino-3-methyl-2,3-dihydro-1H-imidazol-1-yl)methyl)benzamide], the GI50 in assay [1] was < 100 nM. Also, the inhibition constant (Ki) on WDR5 (setting [2]) is < 0.1 nM.
Turning to `CCn1cc(-c2cc(Cn3ccn(C4CC4)c3=N)cc(C(=O)NCc3ccc(=O)n(C)c3)c2)c(C(F)(F)F)n1` [Example 199, 3-((3-Cyclopropyl-2-imino-2,3-dihydro-1H-imidazol-1-yl)methyl)-5-(1-ethyl-3-(trifluoromethyl)-1H-pyrazol-4-yl)-N-((1-methyl-6-oxo-1,6-dihydropyridin-3-yl)methyl)benzamide], in assay [1], the GI50 came out at 940 nM. Further, on WDR5 (setting [2]), the Ki amounted to 0.3 nM.
On to `CCn1cc(-c2cc(Cn3ccn(C)c3=N)cc(C(=O)NCc3ccc(=O)n(C)c3)c2)c(C(F)(F)F)n1` [Example 200, 3-(1-Ethyl-3-(trifluoromethyl)-1H-pyrazol-4-yl)-5-((2-imino-3-methyl-2,3-dihydro-1H-imidazol-1-yl)methyl)-N-((1-methyl-6-oxo-1,6-dihydropyridin-3-yl)methyl)benzamide], for which the GI50 in assay [1] turned out to be 710 nM. Moreover, the inhibition constant Ki on WDR5 (setting [2]) came to 0.15 nM.
For the compound `Cc1cc([C@@H](NC(=O)c2cc(Cn3ccn(C)c3=N)cc(-c3ccccc3C)c2)C2CC2)ccc1F` [Example 201, (S)—N-(Cyclopropyl(4-fluoro-3-methylphenyl)methyl)-5-((2-imino-3-methyl-2,3-dihydro-1H-imidazol-1-yl)methyl)-2′-methyl-[1,1′-biphenyl]-3-carboxamide], in assay [1], the GI50 was found to be 140 nM. For the same compound, the Ki on WDR5 (setting [2]) was < 0.1 nM.
For the compound `CCn1cc(-c2cc(Cn3ccn(C4CC4)c3=N)cc(C(=O)N[C@H](c3ccc(F)c(Cl)c3)C3CC3)c2)c(C(F)(F)F)n1` [Example 202, (S)—N-((3-Chloro-4-fluorophenyl)(cyclopropyl)methyl)-3-((3-cyclopropyl-2-imino-2,3-dihydro-1H-imidazol-1-yl)methyl)-5-(1-ethyl-3-(trifluoromethyl)-1H-pyrazol-4-yl)benzamide], the GI50 in assay [1] was < 100 nM. For the same compound, the Ki on WDR5 (setting [2]) was < 0.1 nM.
As to `Cc1cc([C@@H](NC(=O)c2cc(CN3CCN(C)C3=N)cc(-c3cn(C)nc3C(F)(F)F)c2)C2CC2)ccc1F` [Example 203, (S)—N-(cyclopropyl(4-fluoro-3-methylphenyl)methyl)-3-((2-imino-3-methylimidazolidin-1-yl)methyl)-5-(1-methyl-3-(trifluoromethyl)-1H-pyrazol-4-yl)benzamide], the GI50 in assay [1] was < 100 nM. For the same compound, the Ki on WDR5 (read-out: Ki for Inhibition of WDR5 by TR-FRET assay) is < 0.1 nM.
On to `Cc1cc([C@@H](NC(=O)c2cc(Cn3ccn(C4CC4)c3=N)cc(-c3cn(C)nc3C(F)(F)F)c2)C2CC2)ncc1F` [Example 204, (S)—N-(Cyclopropyl(5-fluoro-4-methypyridin-2-yl)methyl)-3-((3-cyclopropyl-2-imino-2,3-dihydro-1H-imidazol-1-yl)methyl)-5-(1-methyl-3-(trifluoromethyl)-1H-pyrazol-4-yl)benzamide], for which the GI50 in assay [1] was < 100 nM. Further, the Ki on WDR5 (setting [2]) is < 0.1 nM.
For the compound `Cc1cc([C@@H](NC(=O)c2cc(Cn3ccn(C)c3=N)cc(-c3cn(C)nc3C(F)(F)F)c2)C2CC2)ncc1F` [Example 205, (S)—N-(Cyclopropyl(5-fluoro-4-methylpyridin-2-yl)methyl)-3-((2-imino-3-methyl-2,3-dihydro-1H-imidazol-1-yl)methyl)-5-(1-methyl-3-(trifluoromethyl)-1H-pyrazol-4-yl)benzamide], the GI50 in assay [1] is < 100 nM. In addition, the Ki at WDR5 (setting [2]) is < 0.1 nM.
Turning to `COc1cc([C@@H](NC(=O)c2cc(Cn3ccn(C)c3=N)cc(-c3cn(C)nc3C(F)(F)F)c2)C2CC2)ccc1F` [Example 207], the GI50 in assay [1] was < 100 nM. Moreover, the inhibition constant Ki at WDR5 (setting [2]) was < 0.1 nM.
Take `CCOc1c(C(=O)N[C@@H](C)c2ccc(F)c(C)c2)cc(Cn2ccn(C)c2=N)cc1-c1cn(C)nc1C(F)(F)F` [Example 209, (S)-2-Ethoxy-N-(1-(4-fluoro-3-methylphenyl)ethyl)-5-((2-imino-3-methyl-2,3-dihydro-1H-imidazol-1-yl)methyl)-3-(1-methyl-3-(trifluoromethyl)-1H-pyrazol-4-yl)benzamide]: the GI50 in assay [1] is < 100 nM. In addition, the inhibition constant Ki at WDR5 (setting [2]) is < 0.1 nM.
Regarding `CCOc1c(C(=O)N[C@H](c2ccc(F)c(C)c2)C2CC2)cc(Cn2ccn(C)c2=N)cc1-c1cn(C)nc1C(F)(F)F` [Example 210, (S)—N-(Cyclopropyl(4-fluoro-3-methylphenyl)methyl)-2-ethoxy-5-((2-iminio-3-methyl-2,3-dihydro-1H-imidazol-1-yl)methyl)-3-(1-methyl-3-(trifluoromethyl)-1H-pyrazol-4-yl)benzamide], the GI50 in assay [1] was < 100 nM. Moreover, on WDR5 (setting [2]), the Ki is < 0.1 nM.
As for `Cn1cc(-c2cc(Cn3ccn(C)c3=N)cc(C(=O)N[C@H](c3ccc(Cl)c(Cl)c3)C3CC3)c2)c(C(F)(F)F)n1` [Example 211], in assay [1], the GI50 was < 100 nM. Further, the inhibition constant Ki on WDR5 (setting [2]) was < 0.1 nM.
Turning to `CCn1cc(-c2cc(CN3CCN(C)C3=N)cc(C(=O)N[C@H](c3ccc(F)c(C)c3)C3CC3)c2)c(C(F)(F)F)n1` [Example 212, (S)—N-(Cyclopropyl(4-fluoro-3-methylphenyl)methyl)-3-(1-ethyl-3-(trifluoromethyl)-1H-pyrazol-4-yl)-5-((2-imino-3-methylimidazolidin-1-yl)methyl)benzamide], in assay [1], the GI50 is < 100 nM. The inhibition constant (Ki) on WDR5 is < 0.1 nM.
Consider `CCn1cc(-c2cc(CN3CCN(C)C3=N)cc(C(=O)N[C@H](c3ccc(F)c(F)c3)C3CC3)c2)c(C(F)(F)F)n1` [Example 213, (S)—N-(Cyclopropyl(3,4-difluorophenyl)methyl)-3-(1-ethyl-3-(trifluoromethyl)-1H-pyrazol-4-yl)-5-((2-imino-3-methylimidazolidin-1-yl)methyl)benzamide], for which, in assay [1], the GI50 is < 100 nM. In addition, at WDR5, the inhibition constant Ki is < 0.1 nM.
